Data on two molecules can be found in patent US20020115659A1, “Compounds having heterocyclic groups containing two nitrogen atoms for treating multidrug resistance” (priority 2000, published 2002).

This experiment deals with NIH-MDR1-G185 cells. Briefly: Fluorescent substrate accumulation assay (BODIPY-FL Taxol accumulation). Conditions: MDR modulator 10 micromolar, 15 min preincubation; BODIPY-FL Taxol 500 nM, 40 min at 37° C.; fluorescence in presence/absence of modulator. The class given is cell-based. The method, then: NIH-MDR1-G185 cells (obtained from M. Gottesman, NIH) were harvested and resuspended in RPMI-1640 containing L-glutamine, 10% Cosmic Calf Serum and penicillin-streptomycin. Cell suspension aliquots of 175 microliters (1×10^5 cells) were added to individual wells of a 96 well microtiter plate and preincubated for 15 min at 37° C. with 20 microliter MDR modulator diluted in cell culture media to give a final concentration of 10 micromolar. Control wells received no modulating agent. BODIPY-FL Taxol (Molecular Probes, Eugene, Oreg.) was added to each well in 10 microliter aliquots to give a final concentration of 500 nM and cells were incubated for 40 min at 37° C. Cells were centrifuged at 100× g for 5 min at 4° C. and the cell pellet washed with 200 microliters cold PBS to remove fluorescent medium from wells. Cells were centrifuged once more, media removed, and cells resuspended in 200 microliters cold PBS. Fluorescence accumulation was measured in a fluorescence plate reader fitted with an excitation filter of 485 nm and an emission filter of 538 rn. BODIPY-FL taxol accumulation in the cells was calculated as follows:
Accumulation Index=(fluorescence in NIH-MDR1-G185 cells in the presence of modulator)/(fluorescence in NIH-MDR1-G185 cells in absence of modulator)
Accumulation Index of various compounds prepared above was tested according to the method in Reference Example 3.

For the molecule `O=C(C(CCCc1ccccc1)CCCc1ccccc1)N1CCCCN(C[C@@H](O)COc2cccc3ncccc23)C1` [Example 5], the “Accumulation Index” value was 12.
The result for `COc1ccc(S(=O)(=O)N2CCC(=O)N(c3ccccc3)C2C(=O)N2CCN(C(c3ccccc3)c3ccccc3)CC2)cc1OC` (centres unmarked) [Example 12] reads 7.
